Test results as given in a melting point compilation (Tetko et al.).

Structure (SMILES)	melting point [°C]
Cc1cc(=O)c(C(=O)O)n[nH]1	193 to 195
S=C(NCc1cccnc1)NCc1cccnc1	157 to 159
ClCC12CC3CC(CC(C3)C1)C2	38 to 42
Cc1nc(Cl)c2c3c(sc2n1)CCCCC3	43 to 47
O=S(=O)(Cl)C1c2ccccc2-c2ccccc21	84 to 86
Cn1cc(C(N)=O)cc1C(=O)O	223 to 225
Cc1cc(C(=O)C=O)ccc1F	76 to 78
Cc1nc2ccccc2n1CCN	235 to 237
COC(=O)c1nc2ncc3c(n2n1)C(=O)OCC3	197 to 199
Cc1cc(F)ccc1NC(=O)C=NO	132 to 134
O=C1Nc2cc(F)ccc2C1=O	184 to 186
O=C(O)CN1CCS(=O)(=O)CC1	179 to 181
Nc1cc2c(cc1[N+](=O)[O-])OCC(=O)N2	323 to 325
O=C(CCl)NCc1ccccc1F	79 to 81
COC(=O)CNC(=O)CCCl	59 to 61
CCCCS(=O)(=O)N1CCCCC1C(=O)O (centres undefined)	78 to 80
COc1nc(Cl)c(C=O)n1C	105 to 107
Cc1cc(C)cc(-n2ncc(C=O)n2)c1	64 to 66
Nc1nc(-c2ccc3c(c2)COC3)cs1	204 to 206
Cn1ccnc(N)c1=O	162 to 164
CON(C)S(=O)(=O)c1ccc(N)cc1	148 to 150
Cc1nc(-c2cc3c(s2)CCNC3)cs1	111 to 113
N#CNC1=NCCCCC1	79 to 81
Nc1ccc(-n2cncn2)c(C(F)(F)F)c1	127 to 129

Structure (SMILES)	melting point [°C]
CCN(CC)c1ccc(C=C[N+](=O)[O-])cc1	98 to 100
Oc1ccc(I)nc1	185 to 187
O=c1[nH]c(CNCC2CCCO2)nc2ccccc12 (centres undefined)	128 to 132
COc1nc(N(C)C)sc1C=O	69 to 71
COc1c(Cl)ccnc1O	169 to 171
NCc1cc2sccc2s1	58 to 60
Cc1ccc(-c2nc(N)sc2C)s1	127 to 129
CC(=O)Oc1ccc(CCl)cc1	29 to 31
Nc1cc(-c2ccccc2I)no1	120 to 122
COc1ccc(Br)cc1CBr	51 to 58
O=C(CCl)N1CC=C(c2ccccc2)CC1	86 to 88
NC(=O)COc1ccc(Cl)cc1S(N)(=O)=O	214 to 216
Clc1ccc(-n2cccn2)nn1	142 to 144
NS(=O)(=O)c1ccc(Br)cn1	170 to 172
O=C(O)CCCNCc1ccccn1	69 to 71
N#CC1COCCN1 (centres undefined)	76 to 78
O=C(CCCl)NC(=O)NCC(F)(F)F	145 to 147
N#CCCCn1cc(C(=O)O)nn1	164 to 166
CCOc1ccc([N+](=O)[O-])cc1CO	102 to 104
COC(=O)c1coc(C(=O)CCl)c1	97 to 99
Nc1cc(=O)[nH]c(=O)n1Cc1ccc(Cl)cc1	279 to 281
CC(C)(C)NC(N)=S	171 to 175
Cn1ncnc1N	180 to 182
N#CCC(=O)c1cc(Cl)cc(Cl)c1	139 to 141

Structure (SMILES)	melting point [°C]
CCc1ccc(C(=O)O)s1	60 to 62
Nc1ccc2c(c1)S(=O)(=O)CC2	197 to 199
NC(=NO)c1cccs1	81 to 83
ClCc1nnc(-c2cccs2)o1	77 to 79
CC(=O)c1cc(Cl)cc(CCl)c1O	72 to 74
Nc1nc2cc3c(cc2s1)OCCO3	203 to 205
Cn1cnnc1SCc1ccc(C(=O)O)o1	179 to 181
NNc1nc(-c2ccncc2)no1	189 to 191
Cc1ccc(SCCNC(=O)CCl)cc1	114 to 116
CCC(N)C(=O)NC(CC)c1ccc(C)cc1 (centres undefined)	59 to 61
O=C(O)C1(c2ccc(F)cc2)CCCCC1	137 to 139
CC(=O)Nc1cc(C(=O)CCl)ccc1O	188 to 190
CCOC(=O)C(=O)Nc1ccc([N+](=O)[O-])cc1	172 to 174
N#CCN1CCN(Cc2ccccc2)CC1	49 to 51
CSC(=C(C#N)C#N)N1CCOCC1	143 to 145
c1c[nH]c(C2CCCN2)c1 (centres undefined)	75 to 77
Oc1nc(O)c2c(n1)CCC2	324 to 326
CCOC(=O)c1n[nH]sc1=N	126 to 128
N#CC(N)c1cnn(-c2ccccc2)c1 (centres undefined)	98 to 100
CN(CC(=O)Nc1c(Cl)cccc1Cl)C(=O)CCl	188 to 190
O=C(CCl)c1ccc(N2CCCC2=O)cc1	127 to 129
Nc1ncnc(Nc2ccc(F)cc2)n1	249 to 251
Cc1cc(N2CCSCC2)ccc1N	79 to 81
NNC(=O)c1cc2c(s1)CCCCC2	253 to 255

Structure (SMILES)	melting point [°C]
NNC(=O)CN1CCCC1=O	99 to 101
O=c1[nH]cnc2cc(N3CCOCC3)c([N+](=O)[O-])cc12	309 to 311
Cc1cnc2c(c1)NCCN2	127 to 129
Cc1ccccc1NCC(=O)N1CCCCC1	78 to 80
Cc1nc(N)sc1Cc1cccc(Cl)c1	74 to 76
Cn1c(NN)nnc1-c1ccccc1	147 to 149
COC(=O)c1cc([N+](=O)[O-])cc([N+](=O)[O-])c1F	67 to 69
Cc1c(Cl)cccc1NC(=O)CCl	71 to 74
O=C(O)CCc1ccc(OC(F)F)cc1	61 to 63
CCOc1ccccc1C(=O)N1CCNCC1	82 to 84
Cc1nc(N)oc1C	64 to 66
O=C(O)c1cc(S(=O)(=O)N2CCCCC2)ccc1N1CCOCC1	173 to 175
O=C(NCC(F)(F)F)c1cccc(S(=O)(=O)Cl)c1	83 to 85
O=C1CCC(=O)N1c1ncc(Br)s1	150 to 152
O=C(O)CCC(=O)c1ccc(F)c(F)c1	84 to 86
COc1ccc(C(N)=NO)cc1OC	164 to 166
c1cncc(NCc2ccsc2)c1	62 to 64
CC1Nc2ncccc2NC1=O (centres undefined)	272 to 274
Cc1ncc(-c2ccc(N)cc2)o1	126 to 128
O=C1NC(=O)c2cc(S(=O)(=O)Cl)ccc21	163 to 165
O=C(Nc1cccc(-c2nnco2)c1)OCC(F)(F)F	170 to 172
Cc1cccc2c(=O)[nH]c(CC#N)nc12	233 to 235

Next, values leading:

melting point [°C]	Structure (SMILES)
269 to 271	COc1ccc2c(-c3cccnc3)cc(S)nc2c1
184 to 186	CCC(C(=O)O)n1nnc(-c2ccc(Cl)cc2)n1 (centres undefined)
300 to 302	O=C(O)/C=C/c1ccc(-n2ccnc2)cc1
226 to 228	CC(=O)Nc1cccc(C(=O)O)n1
19 to 21	O=C(O)CSc1cccc(C(F)(F)F)c1
191 to 193	O=C(O)c1cccnc1Oc1ccc(Cl)cc1Cl
81 to 83	COc1ccc(C(=O)c2ccccc2)c(OC)c1
87 to 89	O=C(O)CCCOc1ccccc1Br
196 to 198	Cc1nc(COc2ccc(C(=O)O)cc2)cs1
122 to 124	CS(=O)(=O)c1cccc(C(=O)c2ccc(F)c(F)c2)c1
157 to 159	O=C(NO)c1ccccc1C(F)(F)F
82 to 84	COC(=O)C(c1ccc(F)cc1)N1CCN(C(=O)OC(C)(C)C)CC1 (centres undefined)
103 to 105	Cc1ccccc1COc1ccccc1C(=O)O
319 to 321	CC(C)(C)c1ccc(/C=C/c2cc(C(=O)O)c3cc(Br)ccc3n2)cc1
66 to 68	NCc1ccc(-c2cccnc2)cc1
124 to 126	CCCCCCn1nc(C(=O)O)c2ccccc2c1=O
169 to 171	O=C(O)c1ccc(-c2cccs2)o1
186 to 188	Cc1nn(-c2ccc(Cl)cc2Cl)c(C)c1CC(=O)O
139 to 141	O=C(O)c1cn(-c2cccc(Cl)c2F)nn1
228 to 230	O=C1COc2ccc(C(=O)/C=C/c3ccccc3)cc2N1
149 to 151	O=C(O)c1ccc(COCC(F)(F)F)cc1
88 to 90	Cc1ccc(S(=O)(=O)Nc2ccccc2Br)cc1
167 to 169	COc1ccc(-c2[nH]c3ccccc3c2CCC(=O)O)c(OC)c1
188 to 190	CS(=O)(=O)Cc1cccc(C(=O)O)c1
272 to 274	O=C(O)c1ccc(-c2ccc(-c3ccccc3)cc2)s1

melting point [°C]	Structure (SMILES)
135 to 137	NC(=NO)c1ccc(COc2ccccc2F)cc1
149 to 151	CC(NS(=O)(=O)c1cccc(C(=O)O)c1)c1ccccc1 (centres undefined)
175 to 177	COc1ccc(-n2ccnc2S)cc1
194 to 196	COC(=O)c1ccc(Oc2ccc([N+](=O)[O-])cc2)nn1
119 to 121	O=C(O)c1noc(-c2cc(F)ccc2F)n1
69 to 71	COc1ccc(C(=O)C(Cl)c2ccc(OC)cc2)cc1 (centres undefined)
232 to 234	Cc1c[nH]c(=O)n1-c1cccc(N)c1
175 to 177	COc1ccc(NS(=O)(=O)c2ccc3oc(S)nc3c2)cc1
186 to 188	CCOc1cc(/C=C(\C(=O)O)c2ccccc2)ccc1O
326 to 328	N#Cc1ccc(-c2nc3ccccc3[nH]2)cc1
97 to 99	CC(C)(C)OC(=O)Nc1cccc(CC(=O)O)c1
123 to 125	Cc1cc(C(=O)N2CCCCC2C)ccc1N (centres undefined)
70 to 72	FC(F)(F)c1ccc(CNc2ccc(Br)cc2)cc1
184 to 186	O=C(O)c1ccc(S)cc1Cl
63 to 65	O=C(c1ccc(Br)cc1)c1ccco1
224 to 226	O=C(O)c1cc(-c2ccc(OC(F)F)cc2)nc2ccccc12
276 to 278	CS(=O)(=O)Cc1c(C(=O)O)sc2ccccc12
193 to 195	O=C(O)c1cccc(N2CC=CC2)c1
238 to 240	NC(CC(=O)O)c1ccc(-c2ccccc2)cc1 (centres undefined)
202 to 204	O=C(O)c1nn(-c2ccccc2F)cc1O
228 to 230	CC(=O)c1ccc(NC(=O)c2ccc(C#N)cc2)cc1
112 to 114	Cc1ccc(N2CC(C(=O)O)CC2=O)c(F)c1 (centres undefined)
93 to 95	CC(C)c1nc(C(=O)O)nn1-c1cccc(F)c1
130 to 137	Cc1sc2nc(-c3cccs3)nc(Cl)c2c1C
119 to 121	Cc1nn(-c2ccccc2)c(C)c1NC(=O)CCCl
